The results in this text go back to patent US20240166652A1, “MODULATORS OF THE INTEGRATED STRESS PATHWAY” (Calico Life Sciences LLC, priority 2017, published 2024).

Where only a bound is given, the exact number is not on record here.

The test system of the experiment is ATF4 luciferase reporter in HEK293T cells. In words: ATF4-Luc assay (ATF4 luciferase reporter, tunicamycin-treated HEK293T cells). Conditions: Homo sapiens, HEK-293T; HEK293T cells carrying the ATF4 luciferase reporter, 1 μg/mL tunicamycin, 7 hours. Type of experiment: cell-based, human. In general terms: Reporter assays use an easily measured gene product as a stand-in for the process of interest.
What is called EC50 is the midpoint of the concentration-response curve. Consider `Cn1nc(C(F)(F)F)cc1OCC(=O)NC12CC(NC(=O)COc3ccc(Cl)c(F)c3)(C1)C2` [Compound 369, 2-(4-chloro-3-fluorophenoxy)-N-[3-(2-{[1-methyl-3-(trifluoromethyl)-1H-pyrazol-5-yl]oxy}acetamido)bicyclo[1.1.1]pentan-1-yl]acetamide], for which the EC50 was over 2000 nM.

In the case of `O=C(/C=C/c1ccc(C(F)(F)F)cc1)NC12CC(NC(=O)/C=C/c3ccc(C(F)(F)F)cc3)(C1)C2` [Compound 370, (2E,2′E)-N,N′-(bicyclo[1.1.1]pentane-1,3-diyl)bis{3-[4-(trifluoromethyl)phenyl]prop-2-enamide}], the EC50 is over 2000 nM.

In the case of `O=C(COc1ccc(Cl)c(F)c1)NC12CC(NC(=O)COc3ccnn3C3CC3)(C1)C2` [Compound 371, 2-(4-chloro-3-fluorophenoxy)-N-(3-{2-[(1-cyclopropyl-1H-pyrazol-5-yl)oxy]acetamido}bicyclo[1.1.1]pentan-1-yl)acetamide], the EC50 is 250 to 500 nM.

As for `Cc1nn(C)c(C)c1OCC(=O)NC12CC(NC(=O)COc3ccc(Cl)c(F)c3)(C1)C2` [Compound 374, 2-(4-chloro-3-fluorophenoxy)-N-(3-{2-[(1,3,5-trimethyl-1H-pyrazol-4-yl)oxy]acetamido}bicyclo[1.1.1]pentan-1-yl)acetamide], the EC50 is over 2000 nM.

On to `CN(C(=O)COc1ccc(Cl)c(F)c1)C12CCC(NC(=O)COc3ccc(Cl)c(F)c3)(CC1)C[C@@H]2O` [Compound 375, 2-(4-chloro-3-fluorophenoxy)-N-{(2S)-4-[2-(4-chloro-3-fluorophenoxy)acetamido]-2-hydroxybicyclo[2.2.2]octan-1-yl}-N-methylacetamide], for which the EC50 lay in the range of 50 to 250 nM.

Take `O=C(/C=C/c1ccc(OC(F)(F)F)cn1)NC12CC(NC(=O)COc3ccc(Cl)c(F)c3)(C1)C2` [Compound 376, (2E)-N-{3-[2-(4-chloro-3-fluorophenoxy)acetamido]bicyclo[1.1.1]pentan-1-yl}-3-[5-(trifluoromethoxy)pyridin-2-yl]prop-2-enamide]: the EC50 was 250 to 500 nM.

As to `CN(C(=O)COc1ccc(C(F)(F)F)nc1)C12CCC(NC(=O)COc3ccc(Cl)c(F)c3)(CC1)C[C@@H]2O` [Compound 377, N-{(2S)-4-[2-(4-chloro-3-fluorophenoxy)acetamido]-2-hydroxybicyclo[2.2.2]octan-1-yl}-N-methyl-2-{[6-(trifluoromethyl)pyridin-3-yl]oxy}acetamide], the EC50 was in the range of 500 to 2000 nM.

As for `O=C(COc1ccnc(C(F)F)c1)NC12CC(NC(=O)COc3ccc(Cl)c(F)c3)(C1)C2` [Compound 378, 2-(4-chloro-3-fluorophenoxy)-N-[3-(2-{[2-(difluoromethyl)pyridin-4-yl]oxy}acetamido)bicyclo[1.1.1]pentan-1-yl]acetamide], the EC50 fell in the range of 10 to 50 nM.

On to `O=C(COc1ccc(F)c(F)c1)NC12CC(NC(=O)COc3ccc4c(c3)OC(F)(F)O4)(C1)C2` [Compound 379, 2-[(2,2-difluoro-2H-1,3-benzodioxol-5-yl)oxy]-N-{3-[2-(3,4-difluorophenoxy)acetamido]bicyclo[1.1.1]pentan-1-yl}acetamide], for which the half-maximal effective concentration (EC50) was under 10 nM.

As to `O=C(COc1ccc(Cl)c(F)c1)NC12CCC(NC(=O)COc3ccc4c(c3)OC(F)(F)O4)(C1)C2` [Compound 380, 2-(4-chloro-3-fluorophenoxy)-N-(4-{2-[(2,2-difluoro-2H-1,3-benzodioxol-5-yl)oxy]acetamido}bicyclo[2.1.1]hexan-1-yl)acetamide], the EC50 fell in the range of 10 to 50 nM.

`Cn1ccc(OCC(=O)NC23CC(NC(=O)COc4ccc(Cl)c(F)c4)(C2)C3)n1` [Compound 381, 2-(4-chloro-3-fluorophenoxy)-N-(3-{2-[(1-methyl-1H-pyrazol-3-yl)oxy]acetamido}bicyclo[1.1.1]pentan-1-yl)acetamide]: the EC50 lay within 500 to 2000 nM.

On to `O=C(COc1ccc(Cl)c(F)c1)NC12CCC(NC(=O)COc3cnc(C(F)F)cn3)(CC1)[C@@H](O)C2` [Compound 382, 2-(4-chloro-3-fluorophenoxy)-N-[(3S)-4-(2-{[5-(difluoromethyl)pyrazin-2-yl]oxy}acetamido)-3-hydroxybicyclo[2.2.2]octan-1-yl]acetamide], for which the EC50 was over 2000 nM.

Take `O=C(COc1ccc2c(c1)OC(F)(F)O2)NC12CC(NC(=O)COc3cnc(C(F)F)cn3)(C1)C2` [Compound 383, 2-[(2,2-difluoro-2H-1,3-benzodioxol-5-yl)oxy]-N-[3-(2-{[5-(difluoromethyl)pyrazin-2-yl]oxy}acetamido)bicyclo[1.1.1]pentan-1-yl]acetamide]: the EC50 was over 2000 nM.

Turning to `O=C(COc1ccc(Cl)c(F)c1)NC12CC(NC(=O)COc3cnc(C(F)F)cn3)(C1)C2` [Compound 384, 2-(4-chloro-3-fluorophenoxy)-N-[3-(2-{[5-(difluoromethyl)pyrazin-2-yl]oxy}acetamido)bicyclo[1.1.1]pentan-1-yl]acetamide], the half-maximal effective concentration (EC50) was over 2000 nM.

On to `Cc1cc(OCC(=O)NC23CC(NC(=O)COc4ccc(Cl)c(F)c4)(C2)C3)n(C)n1` [Compound 385, 2-(4-chloro-3-fluorophenoxy)-N-(3-{2-[(1,3-dimethyl-1H-pyrazol-5-yl)oxy]acetamido}bicyclo[1.1.1]pentan-1-yl)acetamide], for which the EC50 lay within 500 to 2000 nM.

Take `O=C(CNC(=O)c1ccc(OC(F)(F)F)cn1)NC12CC(NC(=O)COc3ccc(Cl)c(F)c3)(C1)C2` [Compound 386, N-[2-({3-[2-(4-chloro-3-fluorophenoxy)acetamido]bicyclo[1.1.1]pentan-1-yl}amino)-2-oxoethyl]-5-(trifluoromethoxy)pyridine-2-carboxamide]: the EC50 was over 2000 nM.

For the molecule `N#CC1CC2(NC(=O)COc3ccc(Cl)c(F)c3)CCC1(NC(=O)COc1ccc(Cl)c(F)c1)CC2` (stereo not shown) [Compound 387, N,N′-(2-cyanobicyclo[2.2.2]octane-1,4-diyl)bis[2-(4-chloro-3-fluorophenoxy)acetamide]], the EC50 was under 10 nM.

In the case of `O=C(COc1ccc(C(F)F)cc1)NC12CC(NC(=O)COc3ccc(Cl)c(F)c3)(C1)C2` [Compound 388, 2-(4-chloro-3-fluorophenoxy)-N-(3-{2-[4-(difluoromethyl)phenoxy]acetamido}bicyclo[1.1.1]pentan-1-yl)acetamide], the EC50 was in the range of 10 to 50 nM.

Turning to `O=C(COc1ccc(C(F)F)cc1)NC12CC(NC(=O)COc3ccc(C(F)F)cc3)(C1)C2` [Compound 389, N,N′-(bicyclo[1.1.1]pentane-1,3-diyl)bis{2-[4-(difluoromethyl)phenoxy]acetamide}], the EC50 is 250 to 500 nM.

Consider `O=C(COc1ccc(Cl)c(F)c1)NC12CCC(NC(=O)COc3ccc(Cl)c(F)c3)(CC1)C(C(=O)O)C2` (stereo not shown) [Compound 390, 1,4-bis[2-(4-chloro-3-fluorophenoxy)acetamido]bicyclo[2.2.2]octane-2-carboxylic Acid], for which the EC50 lay within 50 to 250 nM.

With `O=C(COc1ccc2c(c1)OC(F)(F)O2)NC12CCC(NC(=O)COc3ccc4c(c3)OC(F)(F)O4)(C1)C2` [Compound 391, N,N′-(bicyclo[2.1.1]hexane-1,4-diyl)bis{2-[(2,2-difluoro-2H-1,3-benzodioxol-5-yl)oxy]acetamide}], the EC50 was in the range of 250 to 500 nM.

Consider `O=C(COc1cccc(OC(F)(F)F)c1)NC12CC(NC(=O)COc3ccc(Cl)c(F)c3)(C1)C2` [Compound 392, 2-(4-chloro-3-fluorophenoxy)-N-(3-{2-[3-(trifluoromethoxy)phenoxy]acetamido}bicyclo[1.1.1]pentan-1-yl)acetamide], for which the EC50 was under 10 nM.

With `O=C(COc1ccc(OC(F)(F)F)cc1)NC12CC(NC(=O)COc3ccc(Cl)c(F)c3)(C1)C2` [Compound 393, 2-(4-chloro-3-fluorophenoxy)-N-(3-{2-[4-(trifluoromethoxy)phenoxy]acetamido}bicyclo[1.1.1]pentan-1-yl)acetamide], the EC50 is under 10 nM.

For `Cc1cc(OCC(=O)NC23CCC(NC(=O)COc4ccc(Cl)c(F)c4)(CC2)C[C@@H]3O)cnc1C` [Compound 394, 2-(4-chloro-3-fluorophenoxy)-N-[(3S)-4-{2-[(5,6-dimethylpyridin-3-yl)oxy]acetamido}-3-hydroxybicyclo[2.2.2]octan-1-yl]acetamide], the EC50 is under 10 nM.

As to `Cc1cc(OCC(=O)NC23CCC(NC(=O)COc4ccc(Cl)c(F)c4)(CC2)C[C@@H]3O)cc(C)n1` [Compound 395, 2-(4-chloro-3-fluorophenoxy)-N-[(3S)-4-{2-[(2,6-dimethylpyridin-4-yl)oxy]acetamido}-3-hydroxybicyclo[2.2.2]octan-1-yl]acetamide], the EC50 was 500 to 2000 nM.

Take `O=C(COc1cccc(OC(F)F)c1)NC12CC(NC(=O)COc3ccc(Cl)c(F)c3)(C1)C2` [Compound 396, 2-(4-chloro-3-fluorophenoxy)-N-(3-{2-[3-(difluoromethoxy)phenoxy]acetamido}bicyclo[1.1.1]pentan-1-yl)acetamide]: the EC50 is 10 to 50 nM.

For `O=C(COc1ccc(OC(F)F)cc1)NC12CC(NC(=O)COc3ccc(Cl)c(F)c3)(C1)C2` [Compound 397, 2-(4-chloro-3-fluorophenoxy)-N-(3-{2-[4-(difluoromethoxy)phenoxy]acetamido}bicyclo[1.1.1]pentan-1-yl)acetamide], the EC50 was 10 to 50 nM.

Take `O=C(COc1ccccc1)NC12CC(NC(=O)COc3ccc(Cl)c(F)c3)(C1)C2` [Compound 398, 2-(4-chloro-3-fluorophenoxy)-N-[3-(2-phenoxyacetamido)bicyclo[1.1.1]pentan-1-yl]acetamide]: the EC50 is 10 to 50 nM.

As to `O=C(COc1ccc(C(F)F)nc1)NC12CC(NC(=O)COc3ccc(Cl)c(F)c3)(C1)C2` [Compound 399, 2-(4-chloro-3-fluorophenoxy)-N-[3-(2-{[6-(difluoromethyl)pyridin-3-yl]oxy}acetamido)bicyclo[1.1.1]pentan-1-yl]acetamide], the EC50 lay within 10 to 50 nM.

On to `O=C(COc1ccc(C(F)(F)F)nc1)NC12CC(NC(=O)COc3ccc(C(F)(F)F)nc3)(C1)C2` [Compound 400, N,N′-(bicyclo[1.1.1]pentane-1,3-diyl)bis(2-{[6-(trifluoromethyl)pyridin-3-yl]oxy}acetamide)], for which the EC50 was in the range of 50 to 250 nM.

`O=C(COc1ccc(Cl)c(Cl)c1)NC12CC(NC(=O)COc3ccccn3)(C1)C2` [Compound 401, 2-(3,4-dichlorophenoxy)-N-(3-{2-[(pyridin-2-yl)oxy]acetamido}bicyclo[1.1.1]pentan-1-yl)acetamide]: the EC50 lay within 10 to 50 nM.
